# Experimental data as given in patent publication US20190142971A1, “FORMULATION AND DELIVERY OF MODIFIED NUCLEOSIDE, NUCLEOTIDE, AND NUCLEIC ACID COMPOSITIONS” (ModernaTX, Inc., priority 2013, published 2019).
# Like-named read-outs stand apart in the source and are kept apart here.
# B1: mCherry: mCherry mRNA (SEQ ID NO: 5; SEQ ID NO: 12 in Example 29), Cap1, fully modified with 5-methylcytosine and pseudouridine (nucleic acid)
# chain: GGGAAAUAAGAGAGAAAAGAAGAGUAAGAAGAAAUAUAAGAGCCACCAUGGUAUCCAAGGGGGAGGAGGACAACAUGGCGAUCAUCAAGGAGUUCAUGCGAUUCAAGGUGCACAUGGAAGGUUCGGUCAACGGACACGAAUUUGAAAUCGAAGGAGAGGGUGAAGGAAGGCCCUAUGAAGGGACACAGACCGCGAAACUCAAGGUCACGAAAGGGGGACCACUUCCUUUCGCCUGGGACAUUCUUUCGCCCCAGUUUAUGUACGGGUCCAAAGCAUAUGUGAAGCAUCCCGCCGAUAUUCCUGACUAUCUGAAACUCAGCUUUCCCGAGGGAUUCAAGUGGGAGCGGGUCAUGAACUUUGAGGACGGGGGUGUAGUCACCGUAACCCAAGACUCAAGCCUCCAAGACGGCGAGUUCAUCUACAAGGUCAAACUGCGGGGGACUAACUUUCCGUCGGAUGGGCCGGUGAUGCAGAAGAAAACGAUGGGAUGGGAAGCGUCAUCGGAGAGGAUGUACCCAGAAGAUGGUGCAUUGAAGGGGGAGAUCAAGCAGAGACUGAAGUUGAAAGAUGGGGGACAUUAUGAUGCCGAGGUGAAAACGACAUACAAAGCGAAAAAGCCGGUGCAGCUUCCCGGAGCGUAUAAUGUGAAUAUCAAGUUGGAUAUUACUUCACACAAUGAGGACUACACAAUUGUCGAACAGUACGAACGCGCUGAGGGUAGACACUCGACGGGAGGCAUGGACGAGUUGUACAAAUGAUAAGCUGCCUUCUGCGGGGCUUGCCUUCUGGCCAUGCCCUUCUUCUCUCCCUUGCACCUGUACCUCUUGGUCUUUGAAUAAAGCCUGAGUAGGAAG
# modifications: Cap1; 5-methylcytosine and pseudouridine
# What was measured:
# Balb-C mice [1] = assay: Example 76: modified luciferase mRNA in PBS IM, SC in mice, total flux (Tables 115, 116); type: in vivo; settings: 2.5 mg/kg, PBS (pH 7.4)
# Experimental: The mice were imaged at 2 hours, 8 hours, 24 hours, 48 hours, 72 hours, 96 hours, 120 hours and 144 hours for intramuscular delivery and 2 hours, 8 hours, 24 hours, 48 hours, 72 hours, 96 hours and 120 hours for subcutaneous delivery. Twenty minutes prior to imaging, mice were injected intraperitoneally with a D-luciferin solution at 150 mg/kg. Animals were then anesthetized and images were acquired with an IVIS Lumina II imaging system (Perkin Elmer). Bioluminescence was measured as total flux (photons/second) of the entire mouse. The average total flux (photons/second) for intramuscular administration is shown in Table 115 and the average total flux (photons/second) for subcutaneous administration is shown in Table 116. The background signal was 3.79E+05 (p/s). The peak expression for intramuscular administration was seen between 24 and 48 hours for all chemistry and expression was still detected at 144 hours.
# Balb-C mice [2] = assay: Example 108: luciferase mRNA IM with electroporation, total flux (Tables 174-176); type: in vivo; settings: 2.5 mg/kg IM with electroporation
# Experimental: The mice of Group 2 were treated with electroporation (EP) using the […]™ instrument (Harvard Apparatus/BTX®, Holliston, Mass.) immediately after administration of luciferase.
# […] Twenty minutes prior to imaging, the mice were injected intraperitoneally with a D-luciferin solution at 150 mg/kg. Animals were then anesthetized and images were acquired with an IVIS Lumina II imaging system (Perkin Elmer). Bioluminescence was measured as total flux (photons/second) of the entire mouse.
# Balb-C mice [3] = assay: Example 112: luciferase mRNA electroporation dose response, total flux (Tables 179, 180); settings: mouse, in vivo
# Experimental: The mice undergoing electroporation were subjected to electroporation (EP) using the […]™ instrument (Harvard Apparatus/BTX®, Holliston, Mass.), as outlined in Table 179, immediately after the administration of luciferase or the control.
# All of the mice are imaged at 3 hours, 24 hours, 48 hours, 168 hours, 336 hours and 504 hours post-administration of luciferase modified mRNA. Twenty minutes prior to imaging, the mice are injected intraperitoneally with a D-luciferin solution at 150 mg/kg. Animals are then anesthetized and images were acquired with an IVIS Lumina II imaging system (Perkin Elmer). Bioluminescence is measured as total flux (photons/second) of the entire mouse.
# Balb-C mice [4] = assay: Example 85: lipoplexed luciferase mRNA IV, IM, SC, flux and organ flux (Tables 131, 132); type: in vivo; settings: 0.10 mg/kg; for Flux (average total flux, entire mouse): Balb-C mice; for Organ Flux, Inj. Site: imaged at 6 hours; for Organ Flux, Kidney / Organ Flux, Liver / Organ Flux, Lung / Organ Flux, Spleen: organs imaged at 6 hours
# Experimental: The formulation was administered intravenously (I.V.), intramuscularly (I.M.) or subcutaneously (S.C.) to Balb-C mice at a dose of 0.10 mg/kg.
# Twenty minutes prior to imaging, mice were injected intraperitoneally with a D-luciferin solution at 150 mg/kg. Animals were then anesthetized and images were acquired with an IVIS Lumina II imaging system (Perkin Elmer). Bioluminescence was measured as total flux (photons/second) of the entire mouse. The mice were imaged at 8 hours, 24 hours and 48 hours after dosing and the average total flux (photons/second) was measured for each route of administration and chemical modification. The background signal was about 3.91E+05 p/s. Organs were imaged at 6 hours and the average total flux (photons/second) was measured for the liver, spleen, lung and kidney. A control for each organ was also analyzed.
# mice = assay: Example 29: mCherry LNP IV in mice, liver and spleen by IHC, western blot, FACS; type: in vivo; settings: LNP NPA-003-5, 100 ug IV, 24 hrs
# Experimental: The mCherry formulation, listed in Table 54, was characterized by particle size, zeta potential, and encapsulation.
# Mice were sacrificed at 24 hrs after dosing. The liver and spleen from the mice administered with mCherry modified mRNA formulations were analyzed by immunohistochemistry (IHC), western blot, or fluorescence-activated cell sorting (FACS).
# [5] = tested on: peripheral blood mononuclear cells (PBMC); type: cell-based, human
# Experimental: 500 ng of G-CSF mRNA modified with 5-methylcytosine (5mC) and pseudouridine (pseudoU) or unmodified G-CSF mRNA was transfected with 0.4 uL of Lipofectamine 2000 into peripheral blood mononuclear cells (PBMC) from three normal blood donors (D1, D2, and D3). […] The supernatant was harvested 6 hours and 18 hours after transfection and run by ELISA to determine the protein expression. The expression of G-CSF, IFN-alpha, and TNF-alpha for Donor 1 is shown in Table 88, Donor 2 is shown in Table 89 and Donor 3 is shown in Table 90.
# rats = assay: Example 67: intravitreal mCherry/luciferase mRNA in rats, F-microscopy (Table 100); type: in vivo; settings: saline, 18 hours
# Source text: The sample was compared against a control of saline only delivered intravitreally.
# The formulation will be administered to the left or right eye of each animal on day 1 while the animal is anesthetized. On the day prior to administration gentamicin ophthalmic ointment or solution was applied to both eyes twice. The gentamicin ophthalmic ointment or solution was also applied immediately following the injection and on the day following the injection. Prior to dosing, mydriatic drops (1% tropicamide and/or 2.5% phenylephrine) are applied to each eye.
# 18 hours post dosing the eyes receiving the dose of mCherry and delivery buffer are enucleated and each eye was separately placed in a tube containing 10 mL 4% paraformaldehyde at room temperature for overnight tissue fixation. The following day, eyes will be separately transferred to tubes containing 10 mL of 30% sucurose and stored at 21° C. until they were processed and sectioned. The slides prepared from different sections were evaluated under F-microscopy.
# BJ fibroblasts = settings: 250 ng transfected daily for 5 days
# HEK293 cells = assay: Example 46B: percent modification, HEK293 G-CSF ELISA (Table 75); type: cell-based, Human; settings: HEK293, 250 ng mRNA with RNAiMAX, supernatant after 16 hours
molecule,measurement,setting,value
"Luciferase modified mRNA: luciferase mRNA, SEQ ID NO: 14, fully modified with 5-methylcytosine and 1-methylpseudouridine, in PBS (pH 7.4)",Flux,"Balb-C mice [1]; Intramuscular, 2 hours",4.65E+06 p/s
same,Flux,"Balb-C mice [1]; Intramuscular, 8 hours",3.64E+06 p/s
same,Flux,"Balb-C mice [1]; Intramuscular, 24 hours",1.22E+07 p/s
same,Flux,"Balb-C mice [1]; Intramuscular, 48 hours",1.01E+07 p/s
same,Flux,"Balb-C mice [1]; Intramuscular, 72 hours",8.59E+06 p/s
same,Flux,"Balb-C mice [1]; Intramuscular, 96 hours",2.70E+06 p/s
same,Flux,"Balb-C mice [1]; Intramuscular, 120 hours",1.60E+06 p/s
same,Flux,"Balb-C mice [1]; Intramuscular, 144 hours",2.19E+06 p/s
same,Flux,"Balb-C mice [1]; Subcutaneous, 2 hours",4.54E+06 p/s
same,Flux,"Balb-C mice [1]; Subcutaneous, 8 hours",8.75E+05 p/s
same,Flux,"Balb-C mice [1]; Subcutaneous, 24 hours",5.49E+06 p/s
same,Flux,"Balb-C mice [1]; Subcutaneous, 48 hours",1.77E+06 p/s
same,Flux,"Balb-C mice [1]; Subcutaneous, 72 hours",8.00E+05 p/s
same,Flux,"Balb-C mice [1]; Subcutaneous, 96 hours",5.33E+05 p/s
same,Flux,"Balb-C mice [1]; Subcutaneous, 120 hours",4.09E+05 p/s
same,expression greater than an order of magnitude above background out to,Balb-C mice [2],480 h
same,protein expression with vs without electroporation,Balb-C mice [3],increase protein expression
same,"Flux (average total flux, entire mouse)","Balb-C mice [4]; I.M., 8 hrs",2.53E+06 p/s
same,"Flux (average total flux, entire mouse)","Balb-C mice [4]; I.M., 24 hrs",7.84E+05 p/s
same,"Flux (average total flux, entire mouse)","Balb-C mice [4]; I.M., 48 hrs",6.59E+05 p/s
same,"Organ Flux, Inj. Site",Balb-C mice [4]; I.M.,1.20E+06 p/s
same,"Organ Flux, Kidney",Balb-C mice [4]; I.M.,1.56E+04 p/s
same,"Organ Flux, Liver",Balb-C mice [4]; I.M.,1.72E+04 p/s
same,"Organ Flux, Lung",Balb-C mice [4]; I.M.,1.99E+04 p/s
same,"Organ Flux, Spleen",Balb-C mice [4]; I.M.,1.76E+04 p/s
same,"Flux (average total flux, entire mouse)","Balb-C mice [4]; I.V., 8 hrs",1.78E+06 p/s
same,"Flux (average total flux, entire mouse)","Balb-C mice [4]; I.V., 24 hrs",7.13E+05 p/s
same,"Flux (average total flux, entire mouse)","Balb-C mice [4]; I.V., 48 hrs",3.76E+05 p/s
same,"Organ Flux, Kidney",Balb-C mice [4]; I.V.,1.77E+04 p/s
same,"Organ Flux, Liver",Balb-C mice [4]; I.V.,1.48E+05 p/s
same,"Organ Flux, Lung",Balb-C mice [4]; I.V.,1.93E+06 p/s
same,"Organ Flux, Spleen",Balb-C mice [4]; I.V.,5.00E+06 p/s
same,"Flux (average total flux, entire mouse)","Balb-C mice [4]; S.C., 8 hrs",6.48E+06 p/s
same,"Flux (average total flux, entire mouse)","Balb-C mice [4]; S.C., 24 hrs",7.15E+06 p/s
same,"Flux (average total flux, entire mouse)","Balb-C mice [4]; S.C., 48 hrs",3.20E+06 p/s
same,"Organ Flux, Inj. Site",Balb-C mice [4]; S.C.,8.29E+04 p/s
same,"Organ Flux, Kidney",Balb-C mice [4]; S.C.,1.14E+04 p/s
same,"Organ Flux, Liver",Balb-C mice [4]; S.C.,1.20E+04 p/s
same,"Organ Flux, Lung",Balb-C mice [4]; S.C.,1.38E+04 p/s
same,"Organ Flux, Spleen",Balb-C mice [4]; S.C.,1.46E+04 p/s
B1,mCherry expression in liver (histology),mice,uniform mCherry expression throughout the section
same,mCherry expression in spleen leukocyte populations (FACS),mice,negative for mCherry expression
same,G-CSF,"[5]; PBMC Donor 1, 500 ng mRNA, 6 hours",0 pg/mL
same,G-CSF,"[5]; PBMC Donor 1, 500 ng mRNA, 18 hours",0 pg/mL
same,G-CSF,"[5]; PBMC Donor 2, 500 ng mRNA, 6 hours",0 pg/mL
same,G-CSF,"[5]; PBMC Donor 2, 500 ng mRNA, 18 hours",7 pg/mL
same,G-CSF,"[5]; PBMC Donor 3, 500 ng mRNA, 6 hours",0 pg/mL
same,G-CSF,"[5]; PBMC Donor 3, 500 ng mRNA, 18 hours",0 pg/mL
same,mCherry expression in eye sections,rats,Positive expression was seen
same,IFN-beta,BJ fibroblasts; 6 hours,0 pg/mL
same,IL-6,BJ fibroblasts; 6 hours,3278 pg/mL
same,IFN-beta,BJ fibroblasts; Day 1,238 pg/mL
same,IL-6,BJ fibroblasts; Day 1,3893 pg/mL
same,IFN-beta,BJ fibroblasts; Day 2,113 pg/mL
same,IL-6,BJ fibroblasts; Day 2,1833 pg/mL
same,IFN-beta,BJ fibroblasts; Day 3,413 pg/mL
same,IL-6,BJ fibroblasts; Day 3,25539 pg/mL
same,IFN-beta,BJ fibroblasts; Day 4,413 pg/mL
same,IL-6,BJ fibroblasts; Day 4,29233 pg/mL
same,IFN-beta,BJ fibroblasts; Day 5,213 pg/mL
same,IL-6,BJ fibroblasts; Day 5,20178 pg/mL
same,G-CSF Expression,HEK293 cells,0 ng/mL
